Patent publication US5472949A, “N^4 -(substituted-oxycarbonyl)-5'-deoxy-5-fluorocytidine compounds, compositions and methods of using same” (Hoffmann-La Roche Inc., priority 1992, dated 1995)
Where two headings read alike, the source gives them in different places.

What was measured:
[1] = test system: CXF280 Human Colon Carcinoma; experiment: Antitumor testing against human colon cancer xenograft CXF280; assay type: in vivo, BALB/c nu/nu mice; design: key to Fecal observation: N: normal feces; L: loose passage; key to % Growth inhibition: NE: Not Effective; settings: for inhibition in vivo at 1 mmol/kg/day: Exp. 1, 1.0 mmol/kg/day x 21, oral
Experimental: CXF280 tumor (about 2×2 mm piece) was implanted subcutaneously into BALB/c nu/nu mice (21-22 g) on day 0. When tumor volume became 100 mm^3 on day around 14, the compounds of the invention were orally administered daily for 3 weeks. At one day after the last treatment, tumor volume was calculated.
The percent inhibition of tumor growth given in Table 3 above was calculated from the formula:
% Inhibition ={1-(T-V0)/(C-V0)}×100
V0 =volume of tumor before treatment was started, T=volume of the tumors from the treated group, C=volume of the tumor from the control group.

[2] = Pharmacokinetic profiles in monkeys (plasma 5'-DFUR after oral administration); assay type: in vivo; settings: cynomolgous monkeys, metabolite 5'-DFUR in plasma
Experimental: The compounds of formula (I) were orally administered into groups of 2 to 5 cynomolgous monkeys (3-4 kg). At various times after the administration, plasma was taken for determination of blood concentrations of intact molecules and their active metabolite 5'-DFUR. Metabolites in the plasma were separated by HPLC and their concentrations were calculated.

monkey liver acylamidase = experiment: Susceptibility to monkey liver acylamidase (crude liver extract, 5'-DFCR formed by HPLC); assay type: in vitro ADME; settings: tetrahydrouridine 0.4 mM, 37° C., 60 min
Experimental: (§1) The N^4 -(substituted-oxycarbonyl)-5'-DFCRs of the invention were incubated with crude extracts of monkey and human liver in the presence of an inhibitor of cytidine deaminase, tetrahydrouridine (0.4 mM) at 37° C. for 60 min. Thereafter, the product 5'-DFCR was separated by HPLC and the enzyme susceptibility was calculated from the amount of the product.

human liver acylamidase = experiment: Susceptibility to human liver acylamidase (crude liver extract, 5'-DFCR formed by HPLC); assay type: in vitro ADME; settings: tetrahydrouridine 0.4 mM, 37° C., 60 min
Experimental: as §1

[3] = Toxicity (LD50), oral administration daily for 21 days in mice; settings: mouse, in vivo
Experimental: The toxicity (LD50) of the representative compounds (Example 13,14, and 17) of the present invention was examined by oral administration daily for 21 days in mice. The representative LD50 values obtained from the experiments were more than 500 mg/kg/day.

[4] = Exp. 2, 0.089 mmol/kg/day x 21, oral
[5] = Mus musculus, po, Exp. 1, 0.13 mmol/kg/day x 21, oral, read-out: % Growth inhibition
[6] = Mus musculus, po, Exp. 2, 0.13 mmol/kg/day x 21, oral, read-out: % Growth inhibition
[7] = Exp. 2, 2.25 mmol/kg/day x 21, oral
[8] = Mus musculus, po, Exp. 2, 0.3 mmol/kg/day x 21, oral, read-out: % Growth inhibition
[9] = Mus musculus, po, Exp. 2, 0.67 mmol/kg/day x 21, oral, read-out: % Growth inhibition
[10] = Mus musculus, po, Exp. 2, 1.5 mmol/kg/day x 21, oral, read-out: % Growth inhibition
[11] = Mus musculus, po, Exp. 2, 2.25 mmol/kg/day x 21, oral, read-out: % Growth inhibition
[12] = Exp. 1, 1.5 mmol/kg/day x 21, oral
[13] = Mus musculus, po, Exp. 1, 0.3 mmol/kg/day x 21, oral, read-out: % Growth inhibition
[14] = Mus musculus, po, Exp. 1, 0.67 mmol/kg/day x 21, oral, read-out: % Growth inhibition
[15] = Mus musculus, po, read-out: % Growth inhibition
[16] = Mus musculus, po, Exp. 1, 1.5 mmol/kg/day x 21, oral, read-out: % Growth inhibition
[17] = Exp. 2, 1.5 mmol/kg/day x 21, oral

## O=c1[nH]cc(F)c(=O)[nH]1 [Example 5-FU, 5-fluorouracil, reference compound]
[1]; Exp. 1, 0.089 mmol/kg/day x 21, oral
  Fecal observation: N
[1]; Exp. 1, 0.13 mmol/kg/day x 21, oral
  Fecal observation: N
[1]; Exp. 1, 0.2 mmol/kg/day x 21, oral
  Fecal observation: L
[1]; [4]
  % Growth inhibition: NE
  Fecal observation: N
[1]; Exp. 2, 0.13 mmol/kg/day x 21, oral
  Fecal observation: N
[1]; Exp. 2, 0.2 mmol/kg/day x 21, oral
  Fecal observation: L
[1]; Mus musculus, po, Exp. 1, 0.089 mmol/kg/day x 21, oral, read-out: % Growth inhibition
  inhibition in vivo at 0.089 mmol/kg/day: 28%
[1]; [5]
  inhibition in vivo at 0.13 mmol/kg/day: 59%
[1]; Mus musculus, po, Exp. 1, 0.2 mmol/kg/day x 21, oral, read-out: % Growth inhibition
  inhibition in vivo at 0.2 mmol/kg/day: 79%
[1]; [6]
  inhibition in vivo at 0.13 mmol/kg/day: 20%
[1]; Mus musculus, po, Exp. 2, 0.2 mmol/kg/day x 21, oral, read-out: % Growth inhibition
  inhibition in vivo at 0.2 mmol/kg/day: 58%

## CCCOC(=O)Nc1nc(=O)n([C@@H]2O[C@H](C)[C@@H](O)[C@H]2O)cc1F [Example 10, 5'-deoxy-5-fluoro-N^4-(propoxycarbonyl)cytidine]
[1]; [7]
  Fecal observation: N
[1]; [6]
  inhibition in vivo at 0.13 mmol/kg/day: 39%
[1]; [8]
  inhibition in vivo at 0.3 mmol/kg/day: 56%
[1]; [9]
  inhibition in vivo at 0.67 mmol/kg/day: 75%
[1]; [10]
  inhibition in vivo at 1.5 mmol/kg/day: 86%
[1]; [11]
  inhibition in vivo at 2.25 mmol/kg/day: 93%
[2]
  Plasma 5'-DFUR AUC: 2030 ng·h/mL

## CCCCOC(=O)Nc1nc(=O)n([C@@H]2O[C@H](C)[C@@H](O)[C@H]2O)cc1F [Example 11, N^4-(butoxycarbonyl)-5'-deoxy-5-fluorocytidine]
[1]; [7]
  Fecal observation: N
[1]; [6]
  inhibition in vivo at 0.13 mmol/kg/day: 46%
[1]; [8]
  inhibition in vivo at 0.3 mmol/kg/day: 72%
[1]; [9]
  inhibition in vivo at 0.67 mmol/kg/day: 84%
[1]; [10]
  inhibition in vivo at 1.5 mmol/kg/day: 95%
[1]; [11]
  inhibition in vivo at 2.25 mmol/kg/day: 100%
Monkey liver acylamidase
  Acylamidase activity, Monkey Liver: 20 nmol/mg protein/hr
Human liver acylamidase
  Acylamidase activity, Human Liver: 71 nmol/mg protein/hr
[2]
  Plasma 5'-DFUR AUC: 2060 ng·h/mL

## CCCCCOC(=O)Nc1nc(=O)n([C@@H]2O[C@H](C)[C@@H](O)[C@H]2O)cc1F [Example 12, 5'-deoxy-5-fluoro-N^4-(pentyloxycarbonyl)cytidine]
[1]; [12]
  Fecal observation: N
[1]; [5]
  inhibition in vivo at 0.13 mmol/kg/day: 68%
[1]; [13]
  inhibition in vivo at 0.3 mmol/kg/day: 69%
[1]; [14]
  inhibition in vivo at 0.67 mmol/kg/day: 86%
[1]; [15]
  inhibition in vivo at 1 mmol/kg/day: 86%
[1]; [16]
  inhibition in vivo at 1.5 mmol/kg/day: 96%
Monkey liver acylamidase
  Acylamidase activity, Monkey Liver: 29 nmol/mg protein/hr
Human liver acylamidase
  Acylamidase activity, Human Liver: 190 nmol/mg protein/hr
[2]
  Plasma 5'-DFUR AUC: 2900 ng·h/mL

## CC(C)CCOC(=O)Nc1nc(=O)n([C@@H]2O[C@H](C)[C@@H](O)[C@H]2O)cc1F [Example 14, 5'-deoxy-5-fluoro-N^4-(isopentyloxycarbonyl)cytidine]
[1]; [17]
  Fecal observation: N
[1]; [7]
  Fecal observation: N
[1]; [6]
  inhibition in vivo at 0.13 mmol/kg/day: 68%
[1]; [8]
  inhibition in vivo at 0.3 mmol/kg/day: 68%
[1]; [9]
  inhibition in vivo at 0.67 mmol/kg/day: 85%
[1]; [10]
  inhibition in vivo at 1.5 mmol/kg/day: 94%
[1]; [11]
  inhibition in vivo at 2.25 mmol/kg/day: 100%
Monkey liver acylamidase
  Acylamidase activity, Monkey Liver: 32 nmol/mg protein/hr
Human liver acylamidase
  Acylamidase activity, Human Liver: 74 nmol/mg protein/hr
[3]
  LD50 at 504 h: > 500 mg/kg
[2]
  Plasma 5'-DFUR AUC: 2400 ng·h/mL

## CCC(CC)COC(=O)Nc1nc(=O)n([C@@H]2O[C@H](C)[C@@H](O)[C@H]2O)cc1F [Example 15, 5'-deoxy-N^4-[(2-ethylbutoxy)carbonyl]-5-fluorocytidine]
Monkey liver acylamidase
  Acylamidase activity, Monkey Liver: 23 nmol/mg protein/hr
Human liver acylamidase
  Acylamidase activity, Human Liver: 210 nmol/mg protein/hr
[2]
  Plasma 5'-DFUR AUC: 2890 ng·h/mL

## C[C@H]1O[C@@H](n2cc(F)c(NC(=O)OCC3CCCCC3)nc2=O)[C@H](O)[C@@H]1O [Example 16, N^4-[(cyclohexylmethoxy)carbonyl]-5'-deoxy-5-fluorocytidine]
Monkey liver acylamidase
  Acylamidase activity, Monkey Liver: 33 nmol/mg protein/hr
Human liver acylamidase
  Acylamidase activity, Human Liver: 210 nmol/mg protein/hr
[2]
  Plasma 5'-DFUR AUC: 2520 ng·h/mL

## C[C@H]1O[C@@H](n2cc(F)c(NC(=O)OCCc3ccccc3)nc2=O)[C@H](O)[C@@H]1O [Example 17, 5'-deoxy-5-fluoro-N^4-[(2-phenylethoxy)carbonyl]cytidine]
Monkey liver acylamidase
  Acylamidase activity, Monkey Liver: 22 nmol/mg protein/hr
Human liver acylamidase
  Acylamidase activity, Human Liver: 160 nmol/mg protein/hr
[3]
  LD50 at 504 h: > 500 mg/kg
[2]
  Plasma 5'-DFUR AUC: 2660 ng·h/mL

## C[C@H]1O[C@@H](n2cc(F)c(NC(=O)OCCC3CCCCC3)nc2=O)[C@H](O)[C@@H]1O [Example 20, N^4-[(2-cyclohexylethoxy)carbonyl]-5'-deoxy-5-fluorocytidine]
Monkey liver acylamidase
  Acylamidase activity, Monkey Liver: 19 nmol/mg protein/hr
Human liver acylamidase
  Acylamidase activity, Human Liver: 320 nmol/mg protein/hr

## C[C@H]1O[C@@H](n2cc(F)c(NC(=O)OCCCC3CCCCC3)nc2=O)[C@H](O)[C@@H]1O [Example 21, N^4-[(3-cyclohexylpropyl)oxycarbonyl]-5'-deoxy-5-fluorocytidine]
Monkey liver acylamidase
  Acylamidase activity, Monkey Liver: 26 nmol/mg protein/hr
Human liver acylamidase
  Acylamidase activity, Human Liver: 82 nmol/mg protein/hr

## C[C@H]1O[C@@H](n2cc(F)c(NC(=O)OCCCc3ccccc3)nc2=O)[C@H](O)[C@@H]1O [Example 22, 5'-deoxy-5-fluoro-N^4-[(3-phenylpropyl)oxycarbonyl]cytidine]
Monkey liver acylamidase
  Acylamidase activity, Monkey Liver: 43 nmol/mg protein/hr
Human liver acylamidase
  Acylamidase activity, Human Liver: 110 nmol/mg protein/hr

## CC(C)COC(=O)Nc1nc(=O)n([C@@H]2O[C@H](C)[C@@H](O)[C@H]2O)cc1F [Example 24, 5'-deoxy-5-fluoro-N^4-(isobutoxycarbonyl)cytidine]
[1]; [12]
  Fecal observation: N
[1]; [5]
  inhibition in vivo at 0.13 mmol/kg/day: 37%
[1]; [13]
  inhibition in vivo at 0.3 mmol/kg/day: 64%
[1]; [14]
  inhibition in vivo at 0.67 mmol/kg/day: 75%
[1]; [15]
  inhibition in vivo at 1 mmol/kg/day: 83%
[1]; [16]
  inhibition in vivo at 1.5 mmol/kg/day: 89%
Monkey liver acylamidase
  Acylamidase activity, Monkey Liver: 18 nmol/mg protein/hr
Human liver acylamidase
  Acylamidase activity, Human Liver: 64 nmol/mg protein/hr

## CCCC(CCC)COC(=O)Nc1nc(=O)n([C@@H]2O[C@H](C)[C@@H](O)[C@H]2O)cc1F [Example 25, 5'-deoxy-5-fluoro-N^4-[(2-propylpentyl)oxycarbonyl]cytidine]
Monkey liver acylamidase
  Acylamidase activity, Monkey Liver: < 13 nmol/mg protein/hr
Human liver acylamidase
  Acylamidase activity, Human Liver: 160 nmol/mg protein/hr

## CCCCC(CC)COC(=O)Nc1nc(=O)n([C@@H]2O[C@H](C)[C@@H](O)[C@H]2O)cc1F (stereo partly shown) [Example 26, 5'-deoxy-N^4-[(2-ethylhexyl)oxycarbonyl]-5-fluorocytidine]
Monkey liver acylamidase
  Acylamidase activity, Monkey Liver: 20 nmol/mg protein/hr
Human liver acylamidase
  Acylamidase activity, Human Liver: 560 nmol/mg protein/hr

## CCCCCCCOC(=O)Nc1nc(=O)n([C@@H]2O[C@H](C)[C@@H](O)[C@H]2O)cc1F [Example 27, 5'-deoxy-5-fluoro-N^4-(heptyloxycarbonyl)cytidine]
[1]; [17]
  Fecal observation: N
[1]; [7]
  Fecal observation: N
[1]; [6]
  inhibition in vivo at 0.13 mmol/kg/day: 26%
[1]; [8]
  inhibition in vivo at 0.3 mmol/kg/day: 72%
[1]; [9]
  inhibition in vivo at 0.67 mmol/kg/day: 84%
[1]; [10]
  inhibition in vivo at 1.5 mmol/kg/day: 94%
[1]; [11]
  inhibition in vivo at 2.25 mmol/kg/day: 103%
Monkey liver acylamidase
  Acylamidase activity, Monkey Liver: 59 nmol/mg protein/hr
Human liver acylamidase
  Acylamidase activity, Human Liver: 110 nmol/mg protein/hr

## C[C@H]1O[C@@H](n2cc(F)c(NC(=O)OCC(C)(C)C)nc2=O)[C@H](O)[C@@H]1O [Example 28, 5'-deoxy-5-fluoro-N^4-(neopentyloxycarbonyl)cytidine]
Monkey liver acylamidase
  Acylamidase activity, Monkey Liver: 25 nmol/mg protein/hr
Human liver acylamidase
  Acylamidase activity, Human Liver: 52 nmol/mg protein/hr
[2]
  Plasma 5'-DFUR AUC: 1400 ng·h/mL

## C[C@H]1O[C@@H](n2cc(F)c(NC(=O)OCCC(C)(C)C)nc2=O)[C@H](O)[C@@H]1O [Example 29, 5'-Deoxy-N^4-[(3,3-dimethylbutoxy)carbonyl]-5-fluorocytidine]
Monkey liver acylamidase
  Acylamidase activity, Monkey Liver: 22 nmol/mg protein/hr
Human liver acylamidase
  Acylamidase activity, Human Liver: 50 nmol/mg protein/hr
[2]
  Plasma 5'-DFUR AUC: 2090 ng·h/mL
